Measurements reported in ChEMBL document CHEMBL1146651, “Selective urokinase-type plasminogen activator (uPA) inhibitors. Part 3: 1-isoquinolinylguanidines” (Bioorg Med Chem Lett, 2004).

Assays:
[1] = target: Urokinase-type plasminogen activator (Homo sapiens, UniProt P00749)
Plasminogen [2] = target: T1, Plasminogen (Homo sapiens, UniProt P00747); test: Inhibitory activity against human plasmin was evaluated using chromozym-PL as substrate at 300 mM
[3] = target: T2, Tissue-type plasminogen activator (Homo sapiens, UniProt P00750); test: Inhibitory activity against human tissue plasminogen activator was evaluated using S-2444 as substrate and tissue plasminogen activator stimulator at 1 mM
Target sequence in this assay (P00750 36-562 limits assumed): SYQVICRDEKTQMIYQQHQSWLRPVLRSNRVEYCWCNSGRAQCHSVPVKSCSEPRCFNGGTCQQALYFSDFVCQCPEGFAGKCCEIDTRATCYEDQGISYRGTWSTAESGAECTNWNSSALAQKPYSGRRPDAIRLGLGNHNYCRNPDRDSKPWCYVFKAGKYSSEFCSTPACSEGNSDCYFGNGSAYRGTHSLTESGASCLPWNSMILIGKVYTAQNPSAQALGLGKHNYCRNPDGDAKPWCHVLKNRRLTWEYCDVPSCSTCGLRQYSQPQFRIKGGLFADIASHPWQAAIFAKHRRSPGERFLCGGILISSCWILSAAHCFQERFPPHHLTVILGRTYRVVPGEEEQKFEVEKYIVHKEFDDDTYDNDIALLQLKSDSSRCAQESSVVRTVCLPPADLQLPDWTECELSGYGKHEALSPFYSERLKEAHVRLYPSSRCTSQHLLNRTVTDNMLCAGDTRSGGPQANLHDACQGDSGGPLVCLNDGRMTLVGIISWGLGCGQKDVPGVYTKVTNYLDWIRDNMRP

[4] = target: T2, Tissue-type plasminogen activator; test: Inhibitory activity against human tissue type plasminogen activator using S-2444
Target sequence in this assay (P00750 whole entry): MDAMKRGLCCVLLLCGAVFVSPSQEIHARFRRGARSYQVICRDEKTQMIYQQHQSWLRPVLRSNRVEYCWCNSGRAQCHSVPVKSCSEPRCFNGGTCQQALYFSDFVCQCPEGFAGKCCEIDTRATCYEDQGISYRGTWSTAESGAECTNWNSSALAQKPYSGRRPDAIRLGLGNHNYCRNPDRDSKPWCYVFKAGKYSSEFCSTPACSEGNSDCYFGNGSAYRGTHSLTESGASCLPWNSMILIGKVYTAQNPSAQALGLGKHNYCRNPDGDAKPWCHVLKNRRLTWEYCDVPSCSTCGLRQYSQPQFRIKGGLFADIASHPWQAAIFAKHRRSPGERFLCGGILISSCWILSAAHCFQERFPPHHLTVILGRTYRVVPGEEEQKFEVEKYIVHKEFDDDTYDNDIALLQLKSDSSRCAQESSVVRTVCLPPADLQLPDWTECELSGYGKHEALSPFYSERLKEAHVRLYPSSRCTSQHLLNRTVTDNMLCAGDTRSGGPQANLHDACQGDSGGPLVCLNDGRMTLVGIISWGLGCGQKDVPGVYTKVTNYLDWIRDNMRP

Plasminogen [5] = target: T1, Plasminogen; test: Inhibition of human plasmin activity with chromozym-PL as substrate
Plasminogen [6] = target: T1, Plasminogen; test: (§1) Inhibitory activity against human plasmin was evaluated using chromozym-PL as substrate at 1 mM
Plasminogen [7] = target: T1, Plasminogen; test: Inhibitory activity against human plasmin was evaluated using chromozym-PL as substrate at 100 mM
[8] = target: T2, Tissue-type plasminogen activator; test: Inhibitory activity against human tissue type plasminogen activator was evaluated using S-2444 as substrate and tissue plasminogen activator stimulator at […]
Target sequence in this assay (P00750 36-562 limits assumed): as the sequence (P00750 36-562 limits assumed) above

Plasminogen [9] = target: T1, Plasminogen; test: Inhibitory activity of 30 uM compound against plasmin was evaluated using chromozym-PL as substrate
[10] = target: T2, Tissue-type plasminogen activator; test: Inhibitory activity against human tissue plasminogen activator was evaluated using S-2444 as substrate and tissue plasminogen activator stimulator at 30 uM
Target sequence in this assay (P00750 36-562 limits assumed): as above

Plasminogen [11] = target: T1, Plasminogen; test: Inhibitory activity against human plasmin was evaluated using chromozym-PL as substrate at 10 uM
Plasminogen [12] = target: T1, Plasminogen; test: as §1; remark: listed apart in the source
Plasminogen [13] = target: T1, Plasminogen; test: Inhibitory activity of 3 uM compound against plasmin was evaluated using chromozym-PL as substrate

T1 sequence (P00747 97-580 limits assumed): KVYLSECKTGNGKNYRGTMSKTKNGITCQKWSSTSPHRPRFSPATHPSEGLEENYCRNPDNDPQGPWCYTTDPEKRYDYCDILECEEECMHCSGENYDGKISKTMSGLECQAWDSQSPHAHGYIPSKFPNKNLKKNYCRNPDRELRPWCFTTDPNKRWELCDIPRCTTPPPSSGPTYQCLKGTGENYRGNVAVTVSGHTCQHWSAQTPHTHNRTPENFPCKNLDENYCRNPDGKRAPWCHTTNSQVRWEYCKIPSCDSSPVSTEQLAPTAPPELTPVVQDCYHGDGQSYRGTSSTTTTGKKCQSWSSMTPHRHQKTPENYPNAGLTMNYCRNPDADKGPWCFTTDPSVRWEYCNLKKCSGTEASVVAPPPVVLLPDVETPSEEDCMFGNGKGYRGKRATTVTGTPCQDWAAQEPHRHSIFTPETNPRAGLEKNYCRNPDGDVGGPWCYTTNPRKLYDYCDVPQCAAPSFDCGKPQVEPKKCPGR
T1 sequence (P00747 581-810 limits assumed): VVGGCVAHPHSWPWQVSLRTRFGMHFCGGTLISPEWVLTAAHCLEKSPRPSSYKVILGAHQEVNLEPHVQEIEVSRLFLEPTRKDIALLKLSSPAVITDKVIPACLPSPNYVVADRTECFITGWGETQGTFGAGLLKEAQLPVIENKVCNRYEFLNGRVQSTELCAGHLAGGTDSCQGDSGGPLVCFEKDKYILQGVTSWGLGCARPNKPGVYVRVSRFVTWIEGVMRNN

Ki [1]	Ki [4]	Ki (Plasminogen [5])	inhibition [8]	Compound	other results
3.62 µM				COc1cccc2c(N=C(N)N)nccc12	inhibition (Plasminogen [2]): < 50%; inhibition [3]: < 50%
	15.5 µM	14.5 µM		COc1ccccc1-c1ccc2c(Cl)cnc(N=C(N)N)c2c1	
				N=C(N)Nc1ccc2ccccc2n1	inhibition (Plasminogen [6]): < 50%
4.8 µM	13 µM			N=C(N)Nc1nccc2ccc(OCc3ccccc3)cc12	inhibition (Plasminogen [7]): < 50%
				N=C(N)Nc1cc2ccccc2cn1	inhibition (Plasminogen [6]): < 50%; inhibition [3]: < 50%
				N=C(N)Nc1nccc2c(OCc3ccccc3)cccc12	inhibition (Plasminogen [7]): < 50%
0.18 µM			< 50%	COc1ccc(C#N)cc1-c1ccc2c(Cl)cnc(N=C(N)N)c2c1	inhibition (Plasminogen [9]): < 50%
1.3 µM			< 50%	N=C(N)Nc1nccc2ccc(CO)cc12	inhibition (Plasminogen [7]): 55%
				N=C(N)Nc1ncc(Cl)c2ccc(-c3ccccc3)cc12	inhibition [10]: < 50%; inhibition (Plasminogen [9]): < 50%
0.037 µM				NC(N)=Nc1ncc(Cl)c2ccc(-c3cccc(C(=O)O)c3)cc12	
			< 50%	N=C(N)Nc1ncc(Cl)c2ccc(-c3cccc(C(=O)O)c3)cc12	inhibition (Plasminogen [11]): < 50%
> 100 µM	124 µM	47.5 µM		NC(N)=Nc1nccc2c(-c3ccccc3)cccc12	
		131 µM		NC(N)=Nc1nccc2cc(Br)ccc12	
4.93 µM	140 µM	238 µM		N=C(N)Nc1nccc2c(Br)cccc12	
0.083 µM			< 50%	COc1cccc(-c2ccc3c(Cl)cnc(N=C(N)N)c3c2)c1	
0.83 µM	128 µM			NC(N)=Nc1ncc(Cl)c2ccccc12	
0.64 µM		24 µM	< 50%	CC(O)c1ccc2ccnc(N=C(N)N)c2c1 (configuration not stated)	
0.3 µM		4.1 µM		N#Cc1cccc(-c2ccc3c(Cl)cnc(N=C(N)N)c3c2)c1	
			< 50%	N=C(N)Nc1nccc2ccc(C(=O)O)cc12	inhibition (Plasminogen [7]): < 50%

Ki [1]	Ki [4]	Ki (Plasminogen [5])	inhibition [8]	Compound	other results
				N=C(N)Nc1ncc(Cl)c2ccccc12	inhibition (Plasminogen [6]): < 50%
0.13 µM	19 µM	7.3 µM		Cc1ccc(-c2ccc3c(Cl)cnc(N=C(N)N)c3c2)cc1	
		3 µM	< 50%	COc1ccc(-c2ccc3c(Cl)cnc(N=C(N)N)c3c2)cc1	
	13 µM			NC(N)=Nc1nccc2c(OCc3ccccc3)cccc12	
			< 50%	N#Cc1ccc(-c2ccc3c(Cl)cnc(NC(=N)N)c3c2)cc1	inhibition (Plasminogen [11]): 82%
1.92 µM	126 µM			NC(N)=Nc1nccc2ccccc12	Ki (Plasminogen [12]): 68 µM
		12 µM		N=C(N)Nc1nccc2ccc(-c3ccc4c(c3)OCO4)cc12	inhibition [3]: 55%
0.49 µM				N#Cc1ccc(-c2ccc3c(Cl)cnc(N=C(N)N)c3c2)cc1	
	159 µM			N=C(N)Nc1ncc(Br)c2ccccc12	inhibition (Plasminogen [6]): < 50%
			< 50%	Cc1cnc(N=C(N)N)c2ccccc12	inhibition (Plasminogen [7]): < 50%
				N=C(N)Nc1nccc2cc(Br)ccc12	inhibition [3]: < 50%
0.66 µM			< 50%	COc1ccc2ccnc(N=C(N)N)c2c1	inhibition (Plasminogen [7]): < 50%
29 µM				N=C(N)Nc1ccccn1	
			< 50%	N#Cc1cccc(-c2ccc3c(Cl)cnc(NC(=N)N)c3c2)c1	
	95.1 µM	50.8 µM		NC(N)=Nc1nccc2ccc(Br)cc12	
209 µM	367 µM			NC(N)=Nc1ccc2ccccc2n1	
0.4 µM	124 µM	47.5 µM		NC(N)=Nc1nccc2ccc(-c3ccccc3)cc12	
0.082 µM			< 50%	N=C(N)Nc1ncc(Cl)c2ccc(-c3ccc(C(=O)O)cc3)cc12	inhibition (Plasminogen [13]): 65%

Compound	Ki [1]	Ki [4]	Ki (Plasminogen [5])	inhibition [8]	other results
N=C(N)Nc1ncc(Cl)c2ccc(-c3ccc4c(c3)OCO4)cc12	0.1 µM		3.2 µM	< 50%	
COc1ccc(C(=O)O)cc1-c1ccc2c(Cl)cnc(N=C(N)N)c2c1	0.009 µM		4.75 µM	< 50%	
